In US9056111B1, “Selective efflux inhibitors and related pharmaceutical compositions and methods of treatment” (STC.UNM, priority 2011, dated 2015):
In brackets after ≈: the same amount, converted by molar mass. Entries after “also recorded” stand apart in the source; their conditions may differ. Read-outs that look alike come from different tables or passages of the source.

Key:
ABCB1 / ABCG2 = molecular target: T1, ABCB1 / ABCG2 (Homo sapiens, UniProt Q9UNQ0); assay: JC-1 efflux inhibition dose response, flow cytometry, Ig-MXP3 cells; conditions: human, probe JC-1 (1 µM), ~Fold G2 Selective (B1/G2), quotient of average ABCB1 IC50 and average ABCG2 IC50, efflux assay
T1 sequence (Q9UNQ0 1-655): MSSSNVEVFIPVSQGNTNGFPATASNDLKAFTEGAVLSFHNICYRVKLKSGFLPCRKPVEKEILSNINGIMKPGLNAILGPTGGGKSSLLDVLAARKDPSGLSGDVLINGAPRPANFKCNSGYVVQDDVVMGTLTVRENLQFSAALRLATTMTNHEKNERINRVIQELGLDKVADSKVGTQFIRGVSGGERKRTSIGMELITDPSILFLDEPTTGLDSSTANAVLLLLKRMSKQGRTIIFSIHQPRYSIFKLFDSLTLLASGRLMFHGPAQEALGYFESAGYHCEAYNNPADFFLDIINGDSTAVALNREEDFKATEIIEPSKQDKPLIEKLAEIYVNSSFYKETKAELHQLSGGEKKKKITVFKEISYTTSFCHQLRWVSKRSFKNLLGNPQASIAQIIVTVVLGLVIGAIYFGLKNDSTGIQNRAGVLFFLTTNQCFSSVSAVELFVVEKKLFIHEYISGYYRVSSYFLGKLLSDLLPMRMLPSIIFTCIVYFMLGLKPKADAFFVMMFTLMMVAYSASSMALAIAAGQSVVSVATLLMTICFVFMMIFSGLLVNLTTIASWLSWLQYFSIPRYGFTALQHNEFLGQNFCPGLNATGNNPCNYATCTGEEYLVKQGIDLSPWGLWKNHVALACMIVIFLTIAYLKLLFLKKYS
In short: (§1)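 Ig-MXP3 (ABCG2) and Jurkat-DNR (ABCB1) cells, run separately, are pre-stained with 1 μM JC-1 and added to compound in PBS; retained dye is read by high-throughput flow cytometry with time-gated analysis.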

ABCG2 = molecular target: T2, ABCG2 (Homo sapiens, UniProt Q9UNQ0); assay: as above
T2 sequence (Q9UNQ0 1-655): T1 sequence (Q9UNQ0 1-655)
In short: as §1

[1] = test system: ABCB1 over-expressing Jurkat-DNR cells; assay: Chemoreversal assay: potentiation of daunorubicin (DNR) killing; format: cell-based; conditions: constant 100 nM DNR, varied inhibitor dose, read-out: CR50 ABCB1
Protocol: Cells (ABCB1, Jurkat-DNR or ABCG2 Ig-MXP3) are incubated with the test compound (3 order of magnitude concentration range) over a 3-day and 7-day period in the presence of the inhibitor and chemotherapeutic (ABCB1, DNR or ABCG2 MTX), such that a cell concentration of at least 1×10^5 cells/mL is maintained. Cell viability is determined by trypan blue staining and enumeration under light microscopy. […] A chemoreversal index (Chemoreversal 50, CR50) is determined from the viability assessment. Using a similar approach, a direct cytotoxicity index (Toxic Dose 50, TD50) is determined by assessment of cell death of cells grown in media alone.
Cells (ABCB1, Jurkat-DNR or ABCG2 Ig-MXP3) were incubated with the test compound in a 3 order of magnitude concentration range over three and seven day periods in the presence of the inhibitor and chemotherapeutic (ABCB1, 100 nM DNR or ABCG2 30 nM MTX), such that a cell concentration of at least 1×10^5 cells mL^−1 was maintained. Cell viability was determined by trypan blue staining and enumeration under light microscopy. […] A chemoreversal index (Chemoreversal 50, CR50) was determined from the viability assessment. Using a similar approach, a direct cytotoxicity index (Toxic Dose 50, TD50) was determined by assessment of cell death of cells grown in media alone.

[2] = test system: ABCG2 over-expressing Igrov1/T8 tumors; assay: ABCG2 resistant Igrov1/T8 tumor xenograft, combination with topotecan; format: in vivo, CB-17 SCID mice; conditions: for tumor size, combination of TPT and inhibitor: 150 nM TPT + 100 nM SID 88095709 (1) or 500 nM SID 85752814 (7), up to 96 hr
Protocol: Specific-pathogen-free adult CB-17 female SCID mice (5-6 weeks of age) weighing 20-25 g, are purchased. Briefly, ABCG2 over-expressing Igrov1/T8 cells are injected (5×10^6 cells/mouse). Prior to injection, Igrov1/T8 cells are maintained in topotecan in order to assure continuous expression of ABCG2. Tumors are allowed to grow for 3-4 weeks or until tumor volumes are greater than ˜100 cubic millimeters, at which time they are stratified into treatment groups. Treatment is administered and we observe the size of the tumor and weight of the mouse over a 7 day period. At the end of 7 days, we: 1) sacrifice the animal; 2) measure and weigh the tumor (if present); 3) analyze the histology of the tumor as well as other organs for evidence of toxicity; and 4) measure the expression of ABCG2 receptors on the tumor to determine if in vivo growth has altered ABCG2 expression. In our initial studies, we have generally observed high survival at 4 weeks (>90%) which escalates rapidly with near 100% mortality by 6 weeks. This approach is well described elsewhere.^9
Tumor-bearing mice were injected with either 150 nM TPT, 100 nM SID 88095709 (probe resupply), or 500 nM SID 85752814 (original SMR hit).
Igrov1/T8 cells were injected into the hind limbs of CB-17 SCID mice at a concentration of 1×10^7 cells in 200 μL, n of 3 per condition. The tumor was grown until the volume was in the range of 75 mm^3 to 250 mm^3. […] Injections were repeated daily and the size of the tumor was determined as a fraction of the starting size. After four days the mice were sacrificed and any recurring tumor was verified by light microscopy examination of histological sections. Mice were studied and maintained in accordance with guidelines of our Institutional Animal Research Committee at UNM HSC.

[3] = Flow cytometric kinetic solubility; format: physicochemical; conditions: kinetic from dmso stock
Text: Applying a flow cytometrickinetic solubility protocol,^65 we were also able to compare solubility across primary, secondary, and profiling buffer conditions in house. […] This is approximately three fold higher than reported above; however, our protocol uses 1% DMSO as compared to 0.1%. […] The presence of fetal bovine serum also affects compound availability and in the primary assay screening buffer (6.7% FBS in PBS, 1% DSMO) the precipitation was inhibited slightly with no particulate noted at 3 μg/mL. […] In general, we are confident that compound availability is sufficient for the concentration ranges discussed for this scaffold set in our described biological systems.

O=C(c1ccoc1)N1CCN(c2cc(-c3ccco3)nc3cc(-c4ccccc4)nn23)CC1 [Compound 1, (4-(5-(furan-2-yl)-2-phenylpyrazolo[1,5-a]pyrimidin-7-yl)piperazin-1-yl)(furan-3-yl)methanone]
selectivity ratio at 30 min (ABCB1 / ABCG2): 36 | EC50 (ABCG2): 130 nM | IC50 (ABCG2): 130 ± 300 nM | fold higher potency in ABCG2 than the prior art Ko143 (ABCG2; JC-1 efflux reporter system): approximately 100 fold | ~Fold G2 Selective (B1/G2) (ABCG2; quotient of average ABCB1 IC50 and average ABCG2 IC50, efflux assay): 35.8 fold | EC50 [1]: 550 nM | tumor size, combination of TPT and inhibitor [2]: dramatically reduced tumor size; also recorded: Significant tumor reduction | tumor size, combination of TPT and inhibitor ([2]; listed as SID 88095709): dramatically reduced tumor size | tumor size, single agent ([2]; 150 nM TPT, 100 nM SID 88095709 or 500 nM SID 85752814 alone): remained the same or increased | tumor size, inhibitor alone ([2]; inhibitor alone (100 nM or 500 nM as printed), Example 3): No reduction in size | solubility kinetic ([3]; PBS with 1% DMSO, pH 7.4, aqueous buffer, PBS alone, 1% DMSO, read-out: kinetic solubility): 2 µg/mL (≈ 4.55 µM) | solubility kinetic ([3]; growth media (RPMI with 10% FBS, 1% DMSO), plasma or biological fluid, read-out: kinetic solubility, no precipitate forming at): ≥ 6 µg/mL | solubility kinetic ([3]; primary assay screening buffer (6.7% FBS in PBS, 1% DMSO), plasma or biological fluid, read-out: kinetic solubility, no particulate noted at): ≥ 3 µg/mL
